Measurements as given in patent US8217079B2 (priority 2010, dated 2012).

Columns and labels:
[1] = test system: JAK2^V617F positive Polycythemia Vera; assay: Phase II study of ITF2357 in combination with N-hydroxyurea in Polycythemia Vera; type: in vivo, human
Description: A multicentre, randomized, open-label, phase II study testing Givinostat-Hydrochloride-Monohydrate (ITF2357) in combination with N-hydroxyurea (HU) in Polycythemia Vera (PV).
Population in the study: 44 patients of both genders with an established diagnosis of JAK2^V617F positive PV according to the revised WHO criteria, in need of cytoreductive therapy, non-responders to therapeutic doses of HU monotherapy for at least 3 months.
Duration of the treatment: up to a maximum of 24 weeks of continual administration.
Primary objective: To evaluate the efficacy of ITF2357 in combination with HU in patients with JAK2^V617F positive Polycythemia Vera non-responders to therapeutic doses of HU in monotherapy.
Results: Patients response has been evaluated according to the european criteria [as reported in G. Barosi et al. Blood 113, 4829-4833 (2009)].

[2] = test system: stem cells obtained from PV or ET patients; settings: sub-micromolar concentrations; cited from earlier work
PRV-1 gene expression = settings: in vivo; cited from earlier work
[3] = patients on cytostatic therapy; cited from earlier work
PV = settings: patients with PV; cited from earlier work

In the case of `CCN(CC)Cc1ccc2cc(COC(=O)Nc3ccc(C(=O)NO)cc3)ccc2c1.Cl` [ITF2357, Diethyl-[6-(4-hydroxycarbamoyl-phenylcarbamoyloxymethyl)-naphthalen-2-ylmethyl]-ammonium chloride], the “control of the clinico-hematologic parameters (response by european criteria)” value ([1]; ITF2357 50 mg/day combined with N-hydroxyurea 500 mg/day, preliminary data, 6 patients refractory to previous HU monotherapy) is given as “significant control of the clinico-hematologic parameters”, the “amelioration of the clinical parameters” value ([1]; in combination with N-hydroxyurea, compared to HU monotherapy, patients with myeloproliferative syndromes, preferably polycythemia vera) is given as “significant amelioration of the clinical parameters” and the “clonogenic activity of stem cells” value [2] is given as “inhibit the clonogenic activity”.
In the case of `NC(=O)NO` [N-hydroxyurea, reference compound], the PRV-1 gene expression (PRV-1 gene expression) is listed as “increase” and the “side effects observed (drug tolerance)” value [3] is listed as “leg ulcers and buccal aphthous ulcers”.
In the case of `O=C(CCBr)N1CCN(C(=O)CCBr)CC1` [Pipobroman], the “side effects observed (drug tolerance)” value [3] is given as “gastric pain and diarrhea”.
For IFN-α, the PRV-1 expression (PRV-1 gene expression) is listed as “significantly reduces” and the “efficacy of therapy compared with N-hydroxyurea treatment” value (PV) is listed as “more effective”.
